Assays:
ob/ob mouse = assay: Antidiabetic and hypolipaemic effect in the ob/ob mouse; type: in vivo; conditions: male ob/ob mouse, 3 mg/kg oral once per day for four days, measured 24 hours after the final administration
Source text: Mutations in laboratory animals and also different sensitivities to dietary regimens have allowed the development of animal models having non-insulin-dependent diabetes and hyperlipidaemia associated with obesity and with resistance to insulin. Genetic mice models (ob/ob) (Diabetes, 1982, 31 (1), 1-6) and Zucker (fa/fa) rats have been developed by various laboratories in order to understand the physiopathology of those diseases and test the effectiveness of new antidiabetic compounds (Diabetes, 1983, 32, 830-838).
Antidiabetic and Hypolipaemic Effect in the ob/ob Mouse
The 10-week-old male ob/ob mouse (Harlan) is used for the in vivo tests. The animals are kept in a light-darkness cycle of 12 hours at 25° C. This mouse has a basal hyperglycaemia of 2 g/l. The animals are randomly selected with regard to their glycaemia to form groups of eight. The compounds tested by the oral route are dissolved in a mixture of hydroxyethyl cellulose (HEC 1%) to be administered at 3 mg/kg in a volume of 10 ml/kg once per day for four days. The control group receives the solvents under the same conditions as the treated groups. The activity of the products is evaluated by measuring glycaemia, triglyceridaemia and insulinaemia 24 hours after the final administration and by measuring body weight daily.

SMILES | melting point | reduction in glycaemia compared with the control (ob/ob mouse) [%] | reduction in insulinaemia compared with the control group (ob/ob mouse) [%] | reduction in triglyceridaemia compared with the control group (ob/ob mouse) [%]
CCOC(Cc1ccc(OCCn2ccc3cc(C(=NOC)c4ccccc4)cnc32)cc1)C(=O)OC (stereo not drawn) [Example 11, Methyl 2-ethoxy-3-[4-(2-{5-[(methoxyimino)(phenyl)methyl]-1H-pyrrolo[2,3-b]pyridin-1-yl}ethoxy)phenyl]propanoate] | 145 °C | – | – | –
CON=C(c1ccccc1)c1cnc2c(ccn2CCOc2ccc(CC(OCC(F)(F)F)C(=O)O)cc2)c1 (stereo not drawn) [Example 14, 3-[4-(2-{5-[(Methoxyimino)(phenyl)methyl]-1H-pyrrolo[2,3-b]pyridin-1-yl}ethoxy)phenyl]-2-(2,2,2-trifluoroethoxy)propanoic acid] | 182 °C (dec.) | – | – | –
CO/N=C(/c1ccccc1)c1cnc2c(ccn2CCOc2ccc(CC(OCC(F)(F)F)C(=O)O)cc2)c1Cl (stereo not drawn) [Example 16, 3-[4-(2-{4-Chloro-5-[(Z)-(methoxyimino)(phenyl)methyl]-1H-pyrrolo[2,3-b]pyridin-1-yl}ethoxy)phenyl]-2-(2,2,2-trifluoro-ethoxy)propanoic acid] | 186 °C | – | – | –
CON=C(c1ccccc1)c1ccc2ccn(CCOc3ccc(C[C@H](OCC(F)(F)F)C(=O)O)cc3)c2n1 [Example 32, (2S)-3-[4-(2-{6-[(Methoxyimino) (phenyl)methyl]-1H-pyrrolo[2,3-b]pyridin-1-yl}ethoxy)phenyl]-2-(2,2,2-trifluoroethoxy)propanoic acid] | – | 43 | 23 | 37
